Measured values: US20250325534A1, “MICROBIOCIDAL TETRAHYDROISOQUINOLINE DERIVATIVES” (SYNGENTA CROP PROTECTION AG, priority 2021, published 2025)

What was measured:
[1] = system: Mycosphaerella graminicola; assay: Mycosphaerella graminicola (Septoria tritici) / liquid culture (Septoria blotch); format: cell-based; conditions: Zymoseptoria tritici, 96 h, photometrically 4-5 days after application, read-out: control of Mycosphaerella graminicola
Procedure, shortened: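 Growth inhibition measured by photometry 4-5 days post application, at 24° C incubation. Test compound supplied as DMSO solution; fungal conidia from cryostorage suspended directly in potato dextrose broth as inoculum.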

[2] = system: Alternaria solani; assay: Alternaria solani / tomato / leaf disc (early blight); format: in vivo; conditions: foliar, inoculated 2 days after application, vs untreated control
Description: Example B1: Alternaria solani/Tomato/Leaf Disc (Early Blight) Tomato leaf disks cv. Baby are placed on agar in multiwell plates (24-well format) and sprayed with the formulated test compound diluted in water. The leaf disks are inoculated with a spore suspension of the fungus 2 days after application. The inoculated leaf disks are incubated at 23° C./21° C. (day/night) and 80% relative humidity under a light regime of 12 h/12 h (light/dark) in a climate cabinet and the activity of a compound is assessed as percent disease control compared to untreated when an appropriate level of disease damage appears on untreated check disk leaf disks (5-7 days after application).

[3] = system: Mycosphaerella arachidis; assay: Mycosphaerella arachidis (Cercospora arachidicola) / liquid culture (early leaf spot); format: cell-based; conditions: 96 h, photometrically 4-5 days after application, read-out: control of Mycosphaerella arachidis
Procedure, shortened: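 Photometric growth inhibition, read 4-5 days post-application at 24 °C, of Cercospora arachidicola spores suspended in potato dextrose broth and exposed to test compound delivered from DMSO solution.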

[4] = system: Glomerella lagenarium; assay: Glomerella lagenarium (Colletotrichum lagenarium) / liquid culture (anthracnose); format: cell-based; conditions: Colletotrichum orbiculare, 72 h, photometrically 3-4 days after application, read-out: control of Glomerella lagenarium
Procedure, shortened: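 Conidia in potato dextrose broth added to test compound delivered as DMSO solution in microtiter plates; incubation at 24° C. Growth inhibition read photometrically 3-4 days after application.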

[5] = system: Monographella nivalis; assay: Monographella nivalis (Microdochium nivale) / liquid culture (foot rot cereals); format: cell-based; conditions: 96 h, photometrically 4-5 days after application, read-out: control of Monographella nivalis
Procedure, shortened: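 Test compound, applied as a DMSO solution, was challenged with fungal spores suspended in potato dextrose broth; after 4-5 days at 24° C, photometric readout gave inhibition of growth.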

[6] = system: Pyrenophora teres; assay: Pyrenophora teres / barley / leaf disc preventative (net blotch); format: in vivo; conditions: foliar, inoculated 2 days after application
Description: Example B16: Pyrenophora teres/Barley/Leaf Disc Preventative (Net Blotch) Barley leaf segments cv. Hasso are placed on agar in a multiwell plate (24-well format) and sprayed with the formulated test compound diluted in water. The leaf segments are inoculated with a spore suspension of the fungus 2 days after application. The inoculated leaf segments are incubated at 20° C. and 65% relative humidity under a light regime of 12 h light/12 h darkness in a climate cabinet and the activity of a compound is assessed as disease control compared to untreated when an appropriate level of disease damage appears in untreated check leaf segments (5-7 days after application).

[7] = system: Phaeosphaeria nodorum; assay: Phaeosphaeria nodorum (Septoria nodorum) / wheat / leaf disc preventative (glume blotch); format: in vivo; conditions: Parastagonospora nodorum, foliar, inoculated 2 days after application
Description: Example B9: Phaeosphaeria nodorum (Septoria nodorum)/Wheat/Leaf Disc Preventative (Glume Blotch) Wheat leaf segments cv. Kanzler are placed on agar in a multiwell plate (24-well format) and sprayed with the formulated test compound diluted in water. The leaf disks are inoculated with a spore suspension of the fungus 2 days after application. The inoculated test leaf disks are incubated at 20° C. and 75% relative humidity under a light regime of 12 h light/12 h darkness in a climate cabinet and the activity of a compound is assessed as percent disease control compared to untreated when an appropriate level of disease damage appears in untreated check leaf disks (5-7 days after application).

[8] = system: Botryotinia fuckeliana; assay: Botryotinia fuckeliana (Botrytis cinerea) / liquid culture (gray mould); format: cell-based; conditions: 72 h, growth inhibition photometrically 3-4 days after application, read-out: control of Botryotinia fuckeliana
Description: Example B2: Botryotinia Fuckeliana (Botrytis cinerea)/Liquid Culture (Gray Mould) Conidia of the fungus from cryogenic storage are directly mixed into a nutrient broth (Vogels broth). After placing a DMSO solution of test compound into a microtiter plate (96-well format), the nutrient broth containing the fungal spores is added. The test plates are incubated at 24° C. and the inhibition of growth is determined photometrically 3-4 days after application.

Cc1c(C2CN(C(=O)c3noc(-c4ccc(F)cc4F)n3)Cc3ccccc32)cnn1C (centres unmarked) [Compound P-228, [5-(2,4-difluorophenyl)-1,2,4-oxadiazol-3-yl]-[4-(1,5-dimethylpyrazol-4-yl)-3,4-dihydro-1H-isoquinolin-2-yl]methanone]
≥ 80%: inhibition of growth at 20 ppm [1] | pest or weed control at 200 ppm [2] | inhibition of growth at 20 ppm [3] | inhibition of growth at 20 ppm [4] | inhibition of growth at 20 ppm [5] | pest or weed control at 200 ppm [6]

Cn1cc(C2CN(C(=O)c3nnc(-c4ccccc4F)o3)Cc3ccccc32)cn1 (centres unmarked) [Compound P-54, [5-(2-fluorophenyl)-1,3,4-oxadiazol-2-yl]-[4-(1-methylpyrazol-4-yl)-3,4-dihydro-1H-isoquinolin-2-yl]methanone]
≥ 80%: inhibition of growth at 20 ppm [1] | pest or weed control at 200 ppm [6]

CCC1(c2cnn(C)c2)CN(C(=O)c2cc(-c3ccc(F)cc3F)on2)Cc2ccccc21 (centres unmarked) [Compound P-221, [5-(2,4-difluorophenyl)isoxazol-3-yl]-[4-ethyl-4-(1-methylpyrazol-4-yl)-1,3-dihydroisoquinolin-2-yl]methanone]
≥ 80%: inhibition of growth at 20 ppm [1] | pest or weed control at 200 ppm [7] | inhibition of growth at 20 ppm [3]

Cc1nn(C)c(C)c1C1CN(C(=O)c2cc(-c3ccccc3F)on2)Cc2ccccc21 (centres unmarked) [Compound P-117, [5-(2-fluorophenyl)isoxazol-3-yl]-[4-(1,3,5-trimethylpyrazol-4-yl)-3,4-dihydro-1H-isoquinolin-2-yl]methanone]
≥ 80%: inhibition of growth at 20 ppm [1] | pest or weed control at 200 ppm [7] | inhibition of growth at 20 ppm [3] | inhibition of growth at 20 ppm [4] | inhibition of growth at 20 ppm [5] | pest or weed control at 200 ppm [6]

Cc1nn(C)c(C)c1C1CN(C(=O)c2cc(-c3ccc(F)cc3F)on2)Cc2ccccc21 (centres unmarked) [Compound P-126, [5-(2,4-difluorophenyl)isoxazol-3-yl]-[4-(1,3,5-trimethylpyrazol-4-yl)-3,4-dihydro-1H-isoquinolin-2-yl]methanone]
≥ 80%: inhibition of growth at 20 ppm [1] | pest or weed control at 200 ppm [2] | inhibition of growth at 20 ppm [3] | inhibition of growth at 20 ppm [4] | inhibition of growth at 20 ppm [5] | pest or weed control at 200 ppm [6]

Cn1cc(C2CN(C(=O)c3cc(-c4c(F)cc(F)cc4F)on3)Cc3ccccc32)cn1 (centres unmarked) [Compound P-136, [4-(1-methylpyrazol-4-yl)-3,4-dihydro-1H-isoquinolin-2-yl]-[5-(2,4,6-trifluorophenyl)isoxazol-3-yl]methanone]
≥ 80%: inhibition of growth at 20 ppm [1] | pest or weed control at 200 ppm [2] | pest or weed control at 200 ppm [7] | inhibition of growth at 20 ppm [5] | pest or weed control at 200 ppm [6]

CON=C(C)C1c2ccccc2C(c2cnn(C)c2)CN1C(=O)c1cc(-c2ccc(F)cc2F)on1 (centres unmarked) [Compound P-10, [5-(2,4-difluorophenyl)isoxazol-3-yl]-[1-(N-methoxy-C-methyl-carbonimidoyl)-4-(1-methylpyrazol-4-yl)-3,4-dihydro-1H-isoquinolin-2-yl]methanone]
≥ 80%: inhibition of growth at 20 ppm [1] | pest or weed control at 200 ppm [2] | pest or weed control at 200 ppm [7] | inhibition of growth at 20 ppm [4]

Cc1ccc(-c2cc(C(=O)N3Cc4ccccc4C(c4cnn(C)c4)C3)no2)cc1 (centres unmarked) [Compound P-204, [4-(1-methylpyrazol-4-yl)-3,4-dihydro-1H-isoquinolin-2-yl]-[5-(p-tolyl)isoxazol-3-yl]methanone]
≥ 80%: inhibition of growth at 20 ppm [1] | pest or weed control at 200 ppm [7]

Cn1cc([C@]2(C)CN(C(=O)c3cc(-c4ccc(F)cc4F)on3)Cc3ccccc32)cn1 (single isomer, unassigned) [Compound P-49]
≥ 80%: inhibition of growth at 20 ppm [1] | pest or weed control at 200 ppm [7] | inhibition of growth at 20 ppm [8] | inhibition of growth at 20 ppm [4] | inhibition of growth at 20 ppm [5]

Cn1cc(C2CN(C(=O)c3cc(-c4ccc(F)cc4F)on3)Cc3ccccc32)cn1 (single isomer, unassigned) [Compound P-142, [5-(2,4-difluorophenyl)isoxazol-3-yl]-[4-(1-methylpyrazol-4-yl)-3,4-dihydro-1H-isoquinolin-2-yl]methanone]
≥ 80%: inhibition of growth at 20 ppm [1] | pest or weed control at 200 ppm [2] | pest or weed control at 200 ppm [7] | inhibition of growth at 20 ppm [3] | inhibition of growth at 20 ppm [8] | inhibition of growth at 20 ppm [4] | inhibition of growth at 20 ppm [5]

CON=C(C)c1c(C2CN(C(=O)c3cc(-c4ccc(F)cc4F)on3)Cc3ccccc32)cnn1C (centres unmarked) [Compound P-13, [5-(2,4-difluorophenyl)isoxazol-3-yl]-[4-[5-(N-methoxy-C-methyl-carbonimidoyl)-1-methyl-pyrazol-4-yl]-3,4-dihydro-1H-isoquinolin-2-yl]methanone]
≥ 80%: inhibition of growth at 20 ppm [1] | pest or weed control at 200 ppm [2] | pest or weed control at 200 ppm [7] | inhibition of growth at 20 ppm [5]

COc1ccc2c(c1)C(C)(c1cnn(C)c1)CN(C(=O)c1cc(-c3ccc(F)cc3F)on1)C2C (centres unmarked) [Compound P-40, [5-(2,4-difluorophenyl)isoxazol-3-yl]-[6-methoxy-1,4-dimethyl-4-(1-methylpyrazol-4-yl)-1,3-dihydroisoquinolin-2-yl]methanone]
≥ 80%: inhibition of growth at 20 ppm [1] | pest or weed control at 200 ppm [7] | inhibition of growth at 20 ppm [3] | inhibition of growth at 20 ppm [5]

COc1ccc2c(c1)C(C)N(C(=O)c1cc(-c3ccc(F)cc3F)on1)CC2(C)c1cnn(C)c1 (centres unmarked) [Compound P-18, [5-(2,4-difluorophenyl)isoxazol-3-yl]-[7-methoxy-1,4-dimethyl-4-(1-methylpyrazol-4-yl)-1,3-dihydroisoquinolin-2-yl]methanone]
≥ 80%: inhibition of growth at 20 ppm [1] | pest or weed control at 200 ppm [2] | inhibition of growth at 20 ppm [3] | inhibition of growth at 20 ppm [4] | inhibition of growth at 20 ppm [5] | pest or weed control at 200 ppm [6]

Cc1ccc2c(c1)C(C)(c1cnn(C)c1)CN(C(=O)c1cc(-c3ccc(F)cc3F)on1)C2C (centres unmarked) [Compound P-216, [5-(2,4-difluorophenyl)isoxazol-3-yl]-[1,4,6-trimethyl-4-(1-methylpyrazol-4-yl)-1,3-dihydroisoquinolin-2-yl]methanone]
≥ 80%: inhibition of growth at 20 ppm [1] | inhibition of growth at 20 ppm [8] | inhibition of growth at 20 ppm [4] | inhibition of growth at 20 ppm [5] | pest or weed control at 200 ppm [6]

COc1cc(F)ccc1-c1cc(C(=O)N2Cc3ccccc3C(c3cnn(C)c3C)C2)no1 (centres unmarked) [Compound P-46, [4-(1,5-dimethylpyrazol-4-yl)-3,4-dihydro-1H-isoquinolin-2-yl]-[5-(4-fluoro-2-methoxy-phenyl)isoxazol-3-yl]methanone]
≥ 80%: inhibition of growth at 20 ppm [1] | pest or weed control at 200 ppm [2] | pest or weed control at 200 ppm [7] | inhibition of growth at 20 ppm [3] | inhibition of growth at 20 ppm [5]

Cn1cc(C2CN(C(=O)c3cc(-c4ccc(F)cc4F)on3)Cc3ccc(C#N)cc32)cn1 (centres unmarked) [Compound P-62, 2-[5-(2,4-difluorophenyl)isoxazole-3-carbonyl]-4-(1-methylpyrazol-4-yl)-3,4-dihydro-1H-isoquinoline-6-carbonitrile]
≥ 80%: inhibition of growth at 20 ppm [1] | pest or weed control at 200 ppm [7] | inhibition of growth at 20 ppm [4] | inhibition of growth at 20 ppm [5]
